Measured values reported in publication PMC5654968 (NPJ Systems Biology and Applications, 2017).
Read-outs that look alike come from different tables or passages of the source.

Format: in vivo, rat
Description: Distilled water and saline were administered as vehicle to rats in each control group. […] Plasma cytokine levels were measured by ELISA or multiplex immunoassay; common metabolites and lipid mediators were analyzed by GC-MS/MS and LC-MS/MS, respectively.
Pathway maps of lipid mediators were created by using CellDesigner 4.4 software (http://www.celldesigner.org). We evaluated the effects of the treatments on specific lipid mediators and categorized them according to COX, CYP and LOX pathways by Fisher’s exact test. The proinflammatory and anti-inflammatory indices were analyzed as described by Tam et al. with modification.[22]

[1] = PM/P (polyI:C+maoto vs polyI:C), 2h
[2] = PM/P (polyI:C+maoto vs polyI:C), 4h
[3] = first value of an incomplete line, time (2h or 4h) not assignable

SMILES | log2FC of plasma level (M/C (maoto vs control), 2h) | log2FC of plasma level (M/C (maoto vs control), 4h) | log2FC of plasma level (P/C (polyI:C vs control), 2h) | log2FC of plasma level (P/C (polyI:C vs control), 4h) | log2FC of plasma level [1] | log2FC of plasma level [2] | log2FC of plasma level | log2FC of plasma level [3]
CC/C=C\C/C=C\C/C=C\C=C\C(O)C/C=C\C/C=C\CCC(=O)O (stereo not shown) [10-HDoHE] | 0.15 | -0.47 | 0.01 | 0.14 | -0.04 | -0.60 | – | –
CCCCC/C=C\CC(O)C(O)C/C=C\C/C=C\CCCC(=O)O (stereo not shown) [11,12-DHET] | 0.90 | 0.13 | -0.15 | 0.23 | 0.19 | -0.31 | – | –
CCCCC/C=C\C[C@H]1O[C@H]1C/C=C\C/C=C\CCCC(=O)O [11,12-EET] | -0.50 | -0.33 | -0.22 | 0.37 | -0.13 | -0.59 | – | –
CC/C=C\C/C=C\C/C=C\CC(O)/C=C/C=C\C/C=C\CCC(=O)O (stereo not shown) [11-HDoHE] | 0.35 | -0.42 | 0.05 | 0.13 | 0.03 | -0.58 | – | –
CCCCC/C=C\C=C\C(O)C/C=C\C/C=C\CCCC(=O)O (stereo not shown) [11-HETE] | 0.15 | -0.41 | 0.23 | 0.38 | 0.04 | -0.66 | – | –
CCCCCC(O)C(O)C/C=C\CCCCCCCC(=O)O (stereo not shown) [12,13-DiHOME] | 0.57 | -0.31 | 0.25 | 0.12 | 0.26 | -0.28 | – | –
CC/C=C\C/C=C\CC(O)/C=C/C=C\C/C=C\CCCC(=O)O (stereo not shown) [12-HEPE] | 1.09 | -0.37 | -0.06 | 0.02 | 0.67 | -0.27 | – | –
CCCCC/C=C\C[C@H](O)/C=C/C=C\C/C=C\CCCC(=O)O [12-HETE] | 1.25 | -0.38 | -0.61 | 0.37 | 1.33 | -0.36 | – | –
CCCCCC(O)/C=C/C=C/C/C=C/CCCC(=O)O (stereo not shown) [12-HHT] | 0.48 | -0.39 | 0.33 | 1.13 | -0.01 | -1.45 | – | –
CCCCC/C=C\CC(=O)/C=C/C=C\C/C=C\CCCC(=O)O [12-KETE] | 0.74 | -1.34 | -0.45 | 0.53 | 0.54 | -1.45 | – | –
CCCCCC(=O)CCC1C(=O)CC(O)C1C/C=C\CCCC(=O)O (stereo not shown) [13,14-dihydro-15-keto-PGD2] | – | – | – | – | – | – | -0.34 | 0.70
CCCCCC(=O)CC[C@H]1[C@H](O)CC(=O)[C@@H]1C/C=C\CCCC(=O)O [13,14-dihydro-15-keto-PGE2] | 0.22 | 0.13 | 1.01 | 0.22 | -0.04 | 0.42 | – | –
CCCCCC(=O)CC[C@@H]1[C@@H](C/C=C\CCCC(=O)O)[C@@H](O)C[C@H]1O [13,14-dihydro-15-keto-PGF2α] | 0.41 | -0.29 | 0.56 | -0.30 | 0.05 | 0.38 | – | –
CCCCCC(=O)CCC1C(O)CC(=O)C1CCC(=O)O (stereo not shown) [13,14-dihydro-15-keto-tetranor-PGE2] | 0.05 | -0.80 | 2.37 | 2.09 | -0.40 | -2.03 | – | –
CCCCCC(=O)CCC1C(O)CC(O)C1CCC(=O)O (stereo not drawn) [13,14-dihydro-15-keto-tetranor-PGF1α] | – | – | – | – | – | – | 0.16 | 0.18
CCCCCC(=O)CCC1C(O)CC(O)C1CCC(=O)O (stereo not drawn) [13,14-dihydro-15-keto-tetranor-PGF1β] | 0.11 | 0.40 | 0.93 | 0.27 | 0.11 | -0.01 | – | –
CC/C=C\C/C=C\C=C\C(O)C/C=C\C/C=C\C/C=C\CCC(=O)O (stereo not shown) [13-HDoHE] | 0.03 | -0.44 | 0.01 | 0.18 | -0.06 | -0.62 | – | –

SMILES | log2FC of plasma level (M/C (maoto vs control), 2h) | log2FC of plasma level (M/C (maoto vs control), 4h) | log2FC of plasma level (P/C (polyI:C vs control), 2h) | log2FC of plasma level (P/C (polyI:C vs control), 4h) | log2FC of plasma level [1] | log2FC of plasma level [2] | log2FC of plasma level | log2FC of plasma level [3]
CCCCCC(O)/C=C/C=C\CCCCCCCC(=O)O (stereo not shown) [13-HODE] | 0.14 | -0.46 | 0.15 | 0.36 | -0.11 | -0.80 | – | –
CC/C=C\CC(O)/C=C/C=C\CCCCCCCC(=O)O (stereo not shown) [13-HOTrE] | 0.23 | -0.43 | 0.16 | 0.11 | -0.20 | -0.60 | – | –
CCCCC[C@@H](/C=C/C=C\CCCCCCCC(=O)O)OO [13-HpODE] | 2.37 | -2.47 | 0.75 | 0.25 | -0.76 | -1.63 | – | –
CCCCCC(=O)/C=C/C=C\CCCCCCCC(=O)O [13-KODE] | 0.39 | -1.68 | -0.08 | 0.50 | -0.15 | -1.45 | – | –
CCCCCC(O)C(O)C/C=C\C/C=C\C/C=C\CCCC(=O)O (stereo not shown) [14,15-DHET] | 0.79 | 0.01 | 0.07 | 0.40 | 0.22 | -0.41 | – | –
CC/C=C\CC(O)C(O)C/C=C\C/C=C\C/C=C\CCCC(=O)O (stereo not shown) [14,15-DiHETE] | 0.41 | -0.20 | 0.14 | 0.00 | -0.13 | -0.17 | – | –
CCCCCC1OC1C/C=C\C/C=C\C/C=C\CCCC(=O)O (stereo not shown) [14,15-EET] | -0.23 | -0.59 | -0.40 | 0.01 | 0.02 | -0.47 | – | –
CC/C=C\C/C=C\CC(O)/C=C/C=C\C/C=C\C/C=C\CCC(=O)O (stereo not shown) [14-HDoHE] | 0.82 | -0.39 | -0.32 | 0.40 | 0.58 | -0.58 | – | –
CCCCCC(O)/C=C/C=C\CCCCCCCCCC(=O)O (stereo not shown) [15-HEDE] | 0.33 | -0.76 | -0.05 | 0.71 | 0.14 | -1.18 | – | –
CC/C=C\CC(O)/C=C/C=C\C/C=C\C/C=C\CCCC(=O)O (stereo not shown) [15-HEPE] | 0.47 | -0.29 | 0.28 | 0.06 | -0.02 | -0.55 | – | –
CCCCC[C@H](O)/C=C/C=C\C/C=C\C/C=C\CCCC(=O)O [15-HETE] | -0.07 | -0.49 | -0.12 | 0.56 | -0.02 | -0.78 | – | –
CCCCCC(O)/C=C/C=C\C/C=C\CCCCCCC(=O)O (stereo not shown) [15-HETrE] | 0.77 | 0.00 | 0.20 | 1.11 | 0.25 | -0.98 | – | –
CCCCCC(=O)/C=C/C=C\CCCCCCCCCC(=O)O [15-KEDE] | 0.13 | -0.62 | -0.26 | 0.83 | 0.21 | -1.15 | – | –
CCCCCC(=O)/C=C/[C@H]1[C@H](O)CC(=O)[C@@H]1C/C=C\CCCC(=O)O [15-keto-PGE2] | -0.28 | -0.61 | -0.15 | 0.64 | -0.07 | -1.08 | – | –
CC/C=C\C=C\C(O)C/C=C\C/C=C\C/C=C\C/C=C\CCC(=O)O (stereo not shown) [16-HDoHE] | 0.10 | -0.60 | -0.12 | 0.38 | 0.16 | -0.76 | – | –
CCCCC(O)/C=C\C/C=C\C/C=C\C/C=C\CCCC(=O)O (stereo not shown) [16-HETE] | 0.13 | -0.23 | 0.13 | 0.70 | -0.02 | -0.94 | – | –
